Assay results: ChEMBL document CHEMBL5244255, “An insight on medicinal attributes of 1,2,4-triazoles” (Eur J Med Chem, 2020)
In brackets after ≈: the same amount, converted by molar mass.

Key:
[1] = test system: Cytomegalovirus; assay: Antiviral activity against Cytomegalovirus infected in HFF cells […]; type: functional, organism-based; settings: Human betaherpesvirus 5, HFF
[2] = test system: Cytomegalovirus; assay: Potency index, ratio of ganciclovir IC50 to test compound IC50 for antiviral activity against Cytomegalovirus; type: functional
[3] = test system: Rattus norvegicus; assay: Antiinflammatory activity in rat assessed as reduction in xylene induced edema relative to control; type: functional; set-up: scale not given: the % may be the effect or the level left
[4] = test system: Trypanosoma brucei; assay: […] activity against Trypanosoma brucei assessed as […] growth inhibition; type: functional, organism-based
[5] = test system: Human alphaherpesvirus 1; assay: Antiviral activity against Human alphaherpesvirus 1 assessed as plaque reduction at […] relative to control; type: functional; set-up: dose or concentration left out as unconfirmed
[6] = Protection index, ratio of TD50 for neurotoxicity in ip dosed mouse to ED50 for anticonvulsant activity in ip dosed mouse; type: toxicity, organism-based; settings: in vivo, read-out: Ratio TD50/ED50
[7] = test system: Mus musculus; assay: Anticonvulsant activity in ip dosed mouse assessed as neurotoxicity measured after 15 mins; type: functional; settings: 0.25 h
[8] = test system: Rattus norvegicus; assay: Antiinflammatory activity in rat assessed as reduction in edema at 5 to 20 mg/kg, po measured after 5 hrs relative to control; type: functional; set-up: scale not given: the % may be the effect or the level left; settings: dose 5-20 mg/kg
[9] = test system: Human alphaherpesvirus 1; assay: Antiviral activity against Human alphaherpesvirus 1 infected in African green monkey Vero kidney cells assessed as plaque reduction at 80 uM relative to control; type: functional; set-up: scale not given: the % may be the effect or the level left
[10] = test system: Cytomegalovirus; assay: Potency index, ratio of test compound IC50 to ganciclovir IC50 for antiviral activity against Cytomegalovirus; type: functional
[11] = molecular target: Bifunctional dihydrofolate reductase-thymidylate synthase (Plasmodium vivax, UniProt O02604); assay: Inhibition of Plasmodium vivax dihydrofolate reductase measured after 48 hrs
[12] = Inhibition of Plasmodium falciparum dihydrofolate reductase measured after 48 hrs
[13] = Oral bioavailability in mouse relative to control; type: ADME, organism-based; settings: in vivo
[14] = Inhibition of Mycobacterium tuberculosis Shikimate dehydrogenase […]; type: functional
[15] = test system: Japanese encephalitis virus; assay: Antiviral activity against Japanese encephalitis virus; type: functional; settings: read-out: ED50 (the source's name)
[16] = test system: Leishmania infantum; assay: Antileishmanial activity against Leishmania infantum measured after 20 mins; type: functional
[17] = Inhibition of Plasmodium falciparum dihydrofolate reductase

Chain of Bifunctional dihydrofolate reductase-thymidylate synthase (O02604 whole entry): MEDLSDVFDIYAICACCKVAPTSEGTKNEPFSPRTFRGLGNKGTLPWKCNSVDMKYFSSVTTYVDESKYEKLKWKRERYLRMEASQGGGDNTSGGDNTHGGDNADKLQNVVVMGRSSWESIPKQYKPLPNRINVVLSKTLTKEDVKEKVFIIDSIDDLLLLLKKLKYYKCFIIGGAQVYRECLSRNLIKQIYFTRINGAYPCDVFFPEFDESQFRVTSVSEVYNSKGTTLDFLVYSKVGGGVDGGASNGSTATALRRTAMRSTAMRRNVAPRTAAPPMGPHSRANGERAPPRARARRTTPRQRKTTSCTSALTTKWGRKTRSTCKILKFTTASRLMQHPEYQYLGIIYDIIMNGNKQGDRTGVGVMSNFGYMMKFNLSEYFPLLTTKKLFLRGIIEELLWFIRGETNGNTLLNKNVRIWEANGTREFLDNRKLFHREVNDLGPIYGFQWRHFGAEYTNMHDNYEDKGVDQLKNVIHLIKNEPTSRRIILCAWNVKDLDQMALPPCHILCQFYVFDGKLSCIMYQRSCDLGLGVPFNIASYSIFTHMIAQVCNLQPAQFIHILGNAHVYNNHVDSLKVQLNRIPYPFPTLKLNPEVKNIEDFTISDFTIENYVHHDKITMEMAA

With `Nc1nc2c(ncn2COC(CO)CO)c(=O)[nH]1` [GANCICLOVIR] the IC50 [1] was 590 nM and the “Ratio IC50” value [2] was over 256.
`O=c1c2sccc2n2cnnc2n1-c1ccc(Cl)cc1` showed an Activity [3] of 50.48%.
Work on `Cc1nc(C)c(C(=O)Nc2ccc(F)c(-c3nc4ncc(C(C)(C)C)cn4n3)c2)o1` yielded an EC50 [4] of 30 nM.
In the case of `Cc1ccc2nc(Cl)c3nnc(NC(=S)Nc4ccccc4)n3c2c1`, the Activity [5] is reported as 25%.
`Fc1ccc(-n2c(-c3cccc(Cl)c3)n[nH]c2=S)cc1` gave a selectivity ratio [6] of 3.9 and a TD50 [7] of 137 mg/kg.
`O=C(CSc1nncn1CC(=O)N/N=C/c1ccc(O)cc1)N/N=C/c1ccc(O)cc1` showed an Activity [8] of 64.44%.
Molecule `CCOC(=O)CSc1nc2n(n1)C(=O)C(CCCl)C(C)N2` (stereo not drawn) has an Activity [9] of 50%.
In the case of `Cc1cc2nc(Cc3nncn3-c3ccccn3)c(=O)[nH]c2cc1C`, the IC50 [1] is reported as under 50 nM and the “Ratio IC50” value [10] is reported as over 3000.
`CC1=NC2NC(CC(F)(F)F)=NN2C(Nc2ccc(C(F)(F)F)nc2)=C1` (stereo not drawn) gave an IC50 [11] of 94 nM and an IC50 [12] of 53 nM.
With `COc1ccc(OCc2nn3c(-c4ccc(Br)cc4)nnc3s2)cc1` the bioavailability [13] was 14% and the “log(activity)” value [14] was 1.7.
Work on `CN1C(=O)c2ccccc2N(c2cccc(-c3nnc4n3NC(c3ccccc3)=C(c3ccccc3)S4)c2)C1c1ccccc1` (stereo not drawn) yielded an EC50 [15] of 7.8 µg/mL (≈ 12.9 µM).
Molecule `Nn1c(S)nnc1Cn1nc(Cc2cccs2)n(N)c1=O` has an MIC [16] of 625 µg/mL (≈ 1930 µM).
`CC1=C(C(=O)Nc2ccc(Br)cn2)C(c2cn(-c3ccccc3)nc2-c2ccc(Cl)cc2)n2ncnc2N1` (stereo not drawn) gave an IC50 [17] of 0.023 µg/mL (≈ 0.0391 µM).
